Measurements: the supplement of paper PMC10307832

Assays:
Test in all cases: relative viability (nuclei count vs DMSO), 5 days (fraction); higher = more cells survive
VE-821 + Pemetrexed = compound: CS(=O)(=O)c1ccc(-c2cnc(N)c(C(=O)Nc3ccccc3)n2)cc1 [VE-821] + Nc1nc2[nH]cc(CCc3ccc(C(=O)N[C@@H](CCC(=O)O)C(=O)O)cc3)c2c(=O)[nH]1 [Pemetrexed] (partner 0.2 µM)
Summary of the method: (§1)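 For relative viability, nuclei counts in treated wells were divided by those in vehicle wells. Lung cancer cell lines had been pin-tool dosed in 1536-well plates the day after seeding and cultured for 5 days, then fixed and stained in one step (final 0.05% Triton X-100, 1% formaldehyde, 1 ug/ml Hoechst) and imaged at 4×. Doses were one drug alone or a fixed anchor-drug dose plus five library-drug doses (not always all listed) in √10 steps, and values are duplicate-plate medians.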

Vismodegib + Bortezomib = compound: CS(=O)(=O)c1ccc(C(=O)Nc2ccc(Cl)c(-c3ccccn3)c2)c(Cl)c1 [Vismodegib] + CC(C)C[C@H](NC(=O)[C@H](Cc1ccccc1)NC(=O)c1cnccn1)B(O)O [Bortezomib] (partner 0.002 µM)
Summary of the method: as §1

Vismodegib + Luminespib = compound: CS(=O)(=O)c1ccc(C(=O)Nc2ccc(Cl)c(-c3ccccn3)c2)c(Cl)c1 [Vismodegib] + CCNC(=O)c1noc(-c2cc(C(C)C)c(O)cc2O)c1-c1ccc(CN2CCOCC2)cc1 [Luminespib] (partner 0.01 µM)
Summary of the method: as §1

Ruxolitinib + Luminespib = compound: N#CC[C@H](C1CCCC1)n1cc(-c2ncnc3[nH]ccc23)cn1 [Ruxolitinib] + CCNC(=O)c1noc(-c2cc(C(C)C)c(O)cc2O)c1-c1ccc(CN2CCOCC2)cc1 [Luminespib] (partner 0.01 µM)
Summary of the method: as §1

Cell Line | relative viability (VE-821 + Pemetrexed; first compound 0.08 µM) | relative viability (VE-821 + Pemetrexed; first compound 0.253 µM) | relative viability (VE-821 + Pemetrexed; first compound 0.8 µM) | relative viability (VE-821 + Pemetrexed; first compound 2.53 µM) | relative viability (VE-821 + Pemetrexed; first compound 8 µM) | relative viability (Vismodegib + Bortezomib; first compound 0.08 µM) | relative viability (Vismodegib + Bortezomib; first compound 0.253 µM) | relative viability (Vismodegib + Bortezomib; first compound 0.8 µM) | relative viability (Vismodegib + Bortezomib; first compound 2.53 µM) | relative viability (Vismodegib + Bortezomib; first compound 8 µM) | relative viability (Vismodegib + Luminespib; first compound 0.08 µM) | relative viability (Vismodegib + Luminespib; first compound 0.253 µM) | relative viability (Vismodegib + Luminespib; first compound 0.8 µM) | relative viability (Vismodegib + Luminespib; first compound 2.53 µM) | relative viability (Vismodegib + Luminespib; first compound 8 µM) | relative viability (Ruxolitinib + Luminespib; first compound 0.08 µM) | relative viability (Ruxolitinib + Luminespib; first compound 0.253 µM) | relative viability (Ruxolitinib + Luminespib; first compound 0.8 µM) | relative viability (Ruxolitinib + Luminespib; first compound 2.53 µM) | relative viability (Ruxolitinib + Luminespib; first compound 8 µM)
NCI-H2087 | 0.667 | 0.634 | 0.65 | 0.679 | 0.67 | 0.745 | 0.786 | 0.699 | 0.587 | 0.836 | 0.171 | 0.192 | 0.172 | 0.203 | 0.209 | 0.158 | 0.15 | 0.172 | 0.233 | 0.17
NCI-H2126 | 0.687 | 0.585 | 0.693 | 0.475 | 0.31 | 1.08 | 1.09 | 1.1 | 1.14 | 1.15 | 0.84 | 0.921 | 0.809 | 0.851 | 0.82 | 0.879 | 0.922 | 1.13 | 0.933 | 0.784
NCI-H2228 | 0.333 | 0.373 | 0.301 | 0.253 | 0.156 | 1.08 | 0.954 | 0.958 | 0.835 | 0.965 | 0.225 | 0.183 | 0.182 | 0.127 | 0.18 | 0.131 | 0.146 | 0.118 | 0.144 | 0.148
NCI-H2347 | 0.482 | 0.45 | 0.418 | 0.445 | 0.526 | 1 | 0.9 | – | 0.969 | 0.968 | 0.402 | 0.759 | 0.709 | 0.399 | 0.586 | 0.519 | 0.456 | 0.41 | 0.302 | 0.676
NCI-H2405 | 1.09 | 1.04 | 1.05 | 1.12 | 0.884 | 0.833 | 0.977 | 0.978 | 0.92 | 0.995 | 0.735 | 0.691 | 0.706 | 0.686 | 0.686 | – | 0.654 | 0.838 | 0.481 | 0.476
NCI-H3122 | 0.202 | 0.19 | 0.176 | 0.159 | 0.128 | 1.03 | 1.05 | 1.01 | 0.986 | 0.935 | 0.109 | 0.088 | 0.0658 | 0.073 | 0.0765 | 0.13 | 0.108 | 0.0859 | 0.0958 | 0.113
PC-3 [JPC-3] | 1.25 | 1.03 | 1.18 | 1.13 | 0.848 | 0.827 | 0.929 | 0.786 | 0.766 | 0.93 | 0.737 | 0.651 | 0.689 | 0.653 | 0.745 | 0.663 | 0.677 | 0.755 | 0.579 | 0.734
PC-14 | 0.126 | 0.124 | 0.0908 | 0.0863 | 0.0432 | 0.802 | 0.779 | 0.994 | 0.761 | 0.755 | 0.132 | 0.137 | 0.151 | 0.165 | 0.14 | – | 0.181 | 0.175 | 0.171 | 0.169
RERF-LC-KJ | 0.495 | 0.504 | 0.46 | 0.457 | 0.376 | 1.06 | 1.07 | 1.18 | 1.15 | 1.02 | 1.18 | 1.21 | 1.16 | 1.24 | 1.22 | 1.21 | 1.31 | 1.4 | 1.21 | 0.919
SK-LU-1 | 0.971 | 0.943 | 0.917 | 0.672 | 0.4 | 1.17 | – | 0.979 | 1.1 | 1.16 | 0.206 | 0.201 | 0.22 | 0.216 | 0.223 | 0.185 | 0.204 | 0.255 | 0.182 | 0.207
SW 1573 | 0.774 | 0.816 | 0.748 | 0.784 | 0.576 | 0.958 | 0.995 | 1.16 | – | 0.946 | – | 0.216 | 0.174 | 0.215 | 0.207 | 0.228 | 0.214 | 0.184 | 0.241 | 0.21
